Consider one compound from patent US20230095021A1, “MODULATORS OF TDP-43” (Alteron Therapeutics, Inc., priority 2019, published 2023).

One test deals with T1, TDP43-His (Homo sapiens, UniProt Q13148).
T1 construct: made in house; host or cells: E. coli Rosetta (DE3), vector pRETb/TDP43-His; protein not purified, read in whole cell lysate
Put plainly: Expression of histidine-tagged TDP-43 in E. coli whole cell lysates. Type of test: cell-based. As to conditions: 60 μM ALT-59 with 2 μg/ml PMBN, 0.5 mM IPTG, Rosetta (DE3) cells, Coomassie stain. The method, then: Rosetta (DE3) cells were transformed with pRETb/TDP43-His according manufacture's instruction. After the culture from a single colony reached O.D 0.6 with shaking at 37° C. for 5 hours, it was split into six equal cultures and treated as indicated in FIG. 3. (Lane 1) un-induced blank; (Lane 2) 0.5 mM IPTG, 60 μM DMSO; (Lane 3) 0.5 mM IPTG, 60 μM ALT-59; (Lane 4) 0.5 mM IPTG, 2 μg/ml PMBN; (Lane 5) 0.5 mM IPTG, 2 μg/ml PMBN, 30 μM ALT-59; (Lane 6) 0.5 mM IPTG, 2 μg/ml PMBN, 60 μM ALT-59. Cells were cultured overnight at 25° C. on a shaker and then collected, sonicated in protein sample buffer and boiled before loading on a 10% SDS-PAGE gel. Protein were visualized by Coomassie Brilliant Blue stain.

For the next test, the target named is T2, His-Sumo-TDP43 (Homo sapiens, UniProt Q13148).
T2 construct: made in house; host or cells: E. coli Rosetta (DE3), vector pSumo/TDP43, Ni-NTA purified
Put plainly: Binding of His-Sumo-TDP43 to TG12-biotin, streptavidin bead pull-down and Western blot. On the procedure: Additional experiments were performed to confirm the direct binding of ALT-59 to TDP-43. One microgram of purified His-Sumo-TDP43 was incubated with 1 μg TG12-biotin ([…]-biotin (SEQ ID NO: 1)) in binding buffer containing 20 mM HEPES, pH 7.5, 0.3% CHAPS, 150 mM NaCl, (Sigma-Aldrich), and protease inhibitor cocktail (Roche) for 4 hours on ice in the presence of carrier (50% Cremophor EL, 50% absolute ethanol) or 30 μM ALT-59 dissolved in carrier. Streptavidin magnetic beads (20 μl settled beads, GE Healthcare Life Sciences) were added to pull down the DNA-protein complex by rotating at 4° C. for 2 hours. After being washed 5 times with binding buffer, samples were boiled in protein sample buffer. In another experiment, DNA-protein complex bound to Streptavidin magnetic beads were washed and split into three parts, two of which were incubated with either carrier or ALT-59 for 4 hours with rotation at 4° C. to elute TDP-43 from TG12-biotin-streptavidin. The third part and elutes were mixed with protein sample buffer and boiled. Protein samples from the above experiments were loaded onto 4-20% Tris-glycine gel (Invitrogen) for fractionation. Western blotting was performed using anti-TDP-43 antibody (Proteintech Group).
(Immunoblotting shows a protein as a band on a membrane.)

The test system of a further test is POLDIP3 exon 3. Kind of test: POLDIP3 exon 3 splicing, RT-PCR. Type of test: cell-based. As to conditions: MDA-MB-231 cells. The method, then: Long stretches of TG repeats are found in exon 9 and intron 9 of Lamp2 gene. A shorter stretch is located in intron 10. […] RT-PCR analysis was performed to test if ALT-59 treatment affects LAMP2 alternative splicing. MDA-MB-231 cells were cultured as described above and treated with DMSO or 6 μM ALT-59. Total RNA was extracted using the RNeasy Mini Kit (Qiagen) and equal amount of RNA was reverse transcribed using the SuperScript III First-Strand Synthesis System (Invitrogen). PCR reactions were performed using forward primer located on exon 1 and a reverse primer located on exon 11. PCR samples were resolved in a 1.2% agarose gel and stained with ethidium bromide.
It has been reported that TDP-43 causes CFTR exon 9 skipping, ApoA2 exon 3 skipping, and POLDIP3 exon 3 inclusion. Additional experiments were performed to further confirm that TDP-43 is the target of ALT-59. RT-PCR analysis was performed as described above using the following primers for the three genes. PCR samples were analyzed by polyacrylamide gel electrophoresis and stained with ethidium bromide.

The next test deals with CFTR. Kind of test: CFTR localization, immunofluorescence microscopy, MDA-MB-231 cells. Type of test: cell-based. As to conditions: 4 μM, 3 days. The method, then:
(§1) MDA-MB-231 and U-87 MG cells were cultured on cover slips under the conditions as described above. Cells were treated with DMSO or 4 μM ALT-59 for 3 days. Primary human bronchial epithelial cells isolated from cystic fibrosis patient homozygous for Phe508del-CFTR (Lifeline Cell Technology) were cultured on cover slips in BronchiaLife Cell Culture Medium supplemented with BrochiaLife LifeFactors Kit (Lifeline Cell Technology) and maintained at 37° C. in a CO2 incubator. Cells were treated with DMSO, 4 μM ALT-59, 2 μM ALT-308, or 4 μM ALT-410 for 3 days.
(§2) Cells were fixed in 4% paraformaldehyde for 15 minutes and permeabilized in 0.1% Triton X-100 for 2 minutes. After being blocked in 5% BSA (Sigma-Aldrich), cells were incubated with anti-CFTR antibody (Alomone Labs) followed by Alexa Fluor 488 anti-rabbit secondary antibody. Reagents were buffered in GIBCO PBS (Phosphate-Buffered Saline). Images were taken using Carl Zeiss LSM 510 Laser Scanning Microscope. Parameters were set identical for all images.

A further test deals with Phe508del-CFTR. Kind of test: Phe508del-CFTR localization, immunofluorescence microscopy, primary bronchial epithelial cells of a cystic fibrosis patient. It is filed as cell-based, human. As to conditions: primary bronchial epithelial cells homozygous for Phe508del-CFTR, 4 μM, 3 days. The method, then:
as §1, §2

A further test deals with Beta-secretase 1 (BACE1). Kind of test: BACE1 protein level, Western blot in U-87 MG cells. The conditions noted are these: 2 days. Type of test: cell-based. On the procedure: (§3) U-87 MG and T98G cells were maintained at 37° C. in a CO2 incubator in Dulbecco's Modified Eagle's Medium (DMEM) supplemented with 10% fetal bovine serum (FBS) and 1% of penicillin/streptomycin (Invitrogen). Cells were treated with DMSO, 3 μM, or 6 μM ALT-59 for 2 days and subjected to Western blotting analysis using the indicated antibodies. Protein bands were quantified using the ImageJ software.

A further test has as its system Tau. Kind of test: Tau expression, Western blot in U-87 MG cells. As to conditions: 2 days. It is filed as cell-based. On the procedure: as §3
Another test relates to MAP2. Kind of test: MAP2 expression, Western blot in U-87 MG cells. It is filed as cell-based. As to conditions: 2 days. On the procedure:
as §3

T2 sequence (Q13148 whole entry): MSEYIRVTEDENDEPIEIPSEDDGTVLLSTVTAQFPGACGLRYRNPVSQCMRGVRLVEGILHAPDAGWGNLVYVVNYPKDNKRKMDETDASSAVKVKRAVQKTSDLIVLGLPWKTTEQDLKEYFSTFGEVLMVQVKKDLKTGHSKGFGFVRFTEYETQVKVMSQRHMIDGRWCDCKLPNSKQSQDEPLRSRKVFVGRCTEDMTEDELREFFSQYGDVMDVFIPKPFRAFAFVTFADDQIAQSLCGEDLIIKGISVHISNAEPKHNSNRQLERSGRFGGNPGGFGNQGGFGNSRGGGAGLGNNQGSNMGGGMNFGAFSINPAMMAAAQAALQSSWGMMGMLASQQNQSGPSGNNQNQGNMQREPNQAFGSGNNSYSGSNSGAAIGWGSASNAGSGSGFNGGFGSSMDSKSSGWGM
T1 sequence (Q13148 whole entry): as above

Turning to `CN(C)c1ccc(C2Nc3ccc4ccccc4c3C3=C2C(=O)CC(C)(C)C3)cc1Br` (stereo not drawn) [ALT-59, 5-(3-bromo-4-(dimethylamino)phenyl)-2,2-dimethyl-2,3,5,6-tetrahydrobenzo[a]phenanthridin-4(1H)-one], on TDP43-His, the TDP43-His protein expression entry was “increased protein expression”. In addition, on His-Sumo-TDP43 (30 μM ALT-59 in carrier, 4 hours on ice), the “binding of TDP-43 to TG12” value is listed as “can block the binding of TDP-43 to TG12”. At His-Sumo-TDP43 (preformed DNA-protein complex on streptavidin beads, 4 hours at 4° C.), the “elution of TDP-43 from the TDP43-TG12 complex” value is listed as “capable of displacing TG12 from the TDP43-TG12 complex”. Further, the “splicing of POLDIP3 exon 3” value with POLDIP3 exon 3 was “remain unchanged”. In the test with CFTR, the CFTR localization entry is “redistribution of CFTR from the perinuclear region to the plasma membrane”. For the same compound, the “localization of Phe508del-CFTR on the plasma membrane” value in the test on Phe508del-CFTR was “increased localization of Phe508del-CFTR on the plasma membrane”. In addition, the “reduction of BACE1 protein level” value in the test on Beta-secretase 1 (BACE1) (3 μM) amounted to 20%; with Beta-secretase 1 (BACE1) (6 μM), 50%. Also, the “reduction of Tau expression” value with Tau (3 μM) is 52%; in the test with Tau (6 μM), 38%. Besides, the “increase of MAP2 expression” value with MAP2 (3 μM) was 1.42 folds; with MAP2 (6 μM), 2.51 folds.
